Laboratory results taken from patent US10556860B2, “hTERT modulators and methods of use” (Arizona Board of Regents on Behalf of the University of …, priority 2015, dated 2020).
“Also recorded” adds a separate entry of the source.

Tests used:
[1] = system: G124/125A mutant hTERT G-quadruplex; assay: CD melting (Tm), G124/125A mutant; format: binding, human; conditions: 2 equiv
Method: Circular dichroism. Oligomers of WT, G124A, G124/125A, G138/139A and G146A were synthesized and HPSF-purified by MGW Operon, Inc. For CD analysis, oligomers (5 μM) in a buffer containing 10 mM Tris-HCl (pH 7.5) and 140 mM KCl were annealed. For the CD analysis of the complex of oligomers and compounds, oligomers (5 μM) in a buffer containing 10 mM Tris-HCl (pH 7.5) and 5 mM KCl for GTC365 or 1 mM KCl for BRACO-19 were annealed. Oligomers and GTC365 or BRACO-19 were incubated overnight at room temperature. For the full-length of C-rich strand, the oligomer in a buffer of 10 mM Na cacodylate (pH 6.6) was annealed and then incubated with GTC365 overnight. CD analysis was conducted on a Jasco 810 spectropolarimeter (Jasco, Easton, Md.) using a quartz cell with 1 mm of path length, 1 nm of band width, and 1 s of response time for spectra at 20° C. Melting curves for the determination of Tm were obtained by recording ellipticity at 262 nm with increasing temperatures from 25° C. to 95° C. at a rate of 1.6° C./min. Tm of the C-rich strand with GTC365 was obtained from the CD signal at 286 nm within 10-60° C.
CD and DMS footprinting analyses were conducted to characterize the binding of GTC365 and BRACO-19 to the 5-12 G-quadruplex. […] To verify the effects of compounds on the thermal stability of the WT and the mutant G-quadruplexes, Tms were determined by CD. […]

[2] = system: normal human melanocytes (NHM-002); assay: Viability of normal human melanocytes; format: cell-based; conditions: 1.25, 2.5 and 5 μM, 72 h
Method: FIGS. 13A-13C are a set of graphs showingselective reduction in viability (A) and hTERT expression (B) in melanoma cells carrying hTERT core promotor mutations. NHM-002 (normal human melanocytes) and a G124A mutant cell line were treated with vehicle, 1.25, 2.5, and 5 μM GTC365 for 72 h. Viability was reduced in hTERT mutant melanoma cells by 50% (left). […] (C) Differential response to GTC365 in WT and promoter mutant cell lines.
Next, to assess the selectivity of GTC365 for hTERT-dependent cancer cells relative to normal precursorcells, we compared the effects of a range of […] on viability at 72 h in normal humanmelanocytes (NHM-002) relative to those of UACC-903, aG124A mutant (FIG. 13A). […] To confirm that the reduction in cell viability was aresult of hTERT downregulation, we performed reverse transcription and qPCR to measure the mRNA level of hTERT expression in cells treated with DMSO or 5 μMGTC365. hTERT expression was reduced by 41% in themelanoma cell line after 72 h but was undetectable in normalmelanocytes, even in the absence of GTC365 (FIG. 13B). Finally, tobroadly assess the selectivity of GTC365 for hTERT promotermutant versus WT cells, we conducted a 6-point 72 h MTSproliferation assay to determine EC50s in 14 additional melanoma cell lines with characterized TERT promoter status([…]) (FIG. 13C). […]

MCF7 cells = assay: Counting of live cells treated with GTC365; format: cell-based, human; conditions: low dose, nine days
Method: Counting of live cells treated with GTC365. MCF7 cells were treated with DMSO or 0.5 μM of GTC365. Cells were trypsinized and then subjected to trypan blue exclusion staining for counting of live cells using microscopy every three days. Afterward, 70% of cells were recultured with fresh media and DMSO or GTC365. Relative cell numbers compared to the DMSO were obtained.
Since knockdown of hTERT arrests the cell cycle in the G0/G1 phase, the effects of GTC365 on the cell cycle were evaluated. GTC365 increased the population of the G0/G1 (from 57% to 71%) and G2/M phases (from 10% to 19%), whereas the S-phase was decreased (from 33% to 10%) in a dose-dependent manner with 48 h treatment. […] It is known that various anticancer drugs induce SLP in different cancer cells, leading to mitotic catastrophe as well as apoptotic cell death. Doxorubicin, one of the representative anticancer drugs, induced apoptosis and mitotic catastrophe accompanied by multiple nuclei with SLP. GTC365, like doxorubicin, appears to arrest cell proliferation and induce cell death, apoptosis, or mitotic catastrophe through downregulation of hTERT.

SMILES: N=C(N)NCCCS(=O)(=O)Nc1ccc(Nc2c3ccccc3nc3cc([N+](=O)[O-])ccc23)cc1 [GTC365]
- Tm more increased compared to the WT [1]: 6-7 °C
- viability change [2]: minimal viability change; also recorded: minimal reduction
- cell death of cells showing SLP (MCF7 cells): underwent cell death
